± gives the uncertainty stated by the source.
Experiment: xn = mol fraction of the nth substance listed

CCCC(=O)O + CNC=O
viscosity [mPa·s], 100 kPa
Settings	x2 = 0.1187	x2 = 0.1967	x2 = 0.2806	x2 = 0.3708	x2 = 0.5026	x2 = 0.6111	x2 = 0.6888	x2 = 0.7711	x2 = 0.9041
303.15 K	1.415	1.434	1.455	1.476	1.504	1.524	1.537	1.55	1.57
308.15 K	1.275	1.296	1.317	1.34	1.37	1.393	1.408	1.423	1.447
313.15 K	1.136	1.159	1.183	1.208	1.242	1.269	1.286	1.305	1.334
318.15 K	0.9979	1.024	1.052	1.08	1.12	1.152	1.174	1.197	1.233

CCCC[N+](CCCC)(CCCC)Cc1ccccc1.[Cl-] + OCCOCCO
Settings	viscosity [mPa·s]
293.15 K, 100 kPa, x1 = 0.25	433.5 ± 32

COCCO + CCOC(=O)OCC
298.15 K, 101.33 kPa
Settings	viscosity [mPa·s]
x1 = 0.0272	0.752 ± 0.008
x1 = 0.0413	0.754 ± 0.008
x1 = 0.0549	0.755 ± 0.008
x1 = 0.0747	0.755 ± 0.008
x1 = 0.0907	0.759 ± 0.008
x1 = 0.1297	0.765 ± 0.008
x1 = 0.1593	0.772 ± 0.008
x1 = 0.224	0.791 ± 0.008
x1 = 0.2925	0.814 ± 0.008
x1 = 0.3392	0.835 ± 0.008
x1 = 0.4073	0.866 ± 0.009
x1 = 0.4273	0.877 ± 0.009
x1 = 0.456	0.892 ± 0.009
x1 = 0.4715	0.902 ± 0.009
x1 = 0.5283	0.939 ± 0.009
x1 = 0.5966	0.99 ± 0.009
x1 = 0.6278	1.015 ± 0.009
x1 = 0.6808	1.062 ± 0.009
x1 = 0.7227	1.106 ± 0.009
x1 = 0.7552	1.142 ± 0.009
x1 = 0.8011	1.197 ± 0.01
x1 = 0.8428	1.253 ± 0.01
x1 = 0.8647	1.285 ± 0.01
x1 = 0.8826	1.313 ± 0.01
x1 = 0.9127	1.359 ± 0.01
x1 = 0.9464	1.418 ± 0.01
x1 = 0.9674	1.455 ± 0.011
x2 = 0.0047	1.512 ± 0.011
x2 = 0.0149	1.491 ± 0.011

COCCO + Cc1ccccc1
viscosity [mPa·s]
Settings	298.15 K	303.15 K	308.15 K
101 kPa, x1 = 0.0586	0.571 ± 0.01	–	0.512 ± 0.01
101 kPa, x1 = 0.1696	0.617 ± 0.011	–	0.545 ± 0.01
101 kPa, x1 = 0.2421	0.654 ± 0.012	–	0.571 ± 0.01
101 kPa, x1 = 0.3513	0.719 ± 0.013	–	0.618 ± 0.011
101 kPa, x1 = 0.4555	0.796 ± 0.014	–	0.674 ± 0.012
101 kPa, x1 = 0.4987	0.833 ± 0.014	–	0.7 ± 0.012
101 kPa, x1 = 0.5515	0.882 ± 0.015	–	0.736 ± 0.013
101 kPa, x1 = 0.6515	0.99 ± 0.017	–	0.814 ± 0.014
101 kPa, x1 = 0.7487	1.118 ± 0.018	–	0.905 ± 0.015
101 kPa, x1 = 0.8495	1.279 ± 0.021	–	1.021 ± 0.017
101 kPa, x1 = 0.9558	1.49 ± 0.024	–	1.17 ± 0.02
101.33 kPa, x1 = 0.1311	–	0.566 ± 0.008	–
101.33 kPa, x1 = 0.2283	–	0.608 ± 0.008	–
101.33 kPa, x1 = 0.3137	–	0.645 ± 0.009	–
101.33 kPa, x1 = 0.4277	–	0.716 ± 0.01	–
101.33 kPa, x1 = 0.5253	–	0.784 ± 0.01	–
101.33 kPa, x1 = 0.6244	–	0.87 ± 0.011	–
101.33 kPa, x1 = 0.7116	–	0.954 ± 0.012	–
101.33 kPa, x1 = 0.8018	–	1.057 ± 0.013	–
101.33 kPa, x1 = 0.9149	–	1.219 ± 0.015	–

CC(=O)OCC(C)C + Cc1cccc(C)c1
viscosity [mPa·s], 101 kPa
Settings	x1 = 0.094	x1 = 0.1803	x1 = 0.2916	x1 = 0.3889	x1 = 0.4721	x1 = 0.5698	x1 = 0.6807	x1 = 0.7789	x1 = 0.8716	x1 = 0.9307
303.15 K	0.556 ± 0.011	0.562 ± 0.011	0.572 ± 0.011	0.582 ± 0.011	0.592 ± 0.011	0.602 ± 0.011	0.616 ± 0.011	0.629 ± 0.011	0.641 ± 0.011	0.644 ± 0.011
313.15 K	0.505 ± 0.011	0.508 ± 0.011	0.515 ± 0.011	0.521 ± 0.011	0.527 ± 0.011	0.536 ± 0.011	0.546 ± 0.011	0.555 ± 0.011	0.566 ± 0.011	0.572 ± 0.011

CC(=O)OC(C)C + Cc1ccc(C)cc1
viscosity [mPa·s], 101 kPa
Settings	303.15 K	308.15 K	313.15 K
x1 = 0.0984	0.554 ± 0.011	–	0.502 ± 0.011
x1 = 0.2017	0.541 ± 0.011	–	0.489 ± 0.011
x1 = 0.3126	0.527 ± 0.011	–	0.476 ± 0.011
x1 = 0.4038	0.515 ± 0.011	–	0.465 ± 0.011
x1 = 0.5039	0.505 ± 0.011	–	0.455 ± 0.011
x1 = 0.6015	0.495 ± 0.011	–	0.446 ± 0.011
x1 = 0.7028	0.487 ± 0.011	–	0.437 ± 0.011
x1 = 0.8113	0.477 ± 0.011	–	0.427 ± 0.011
x1 = 0.9523	0.464 ± 0.011	–	0.417 ± 0.01
x2 = 0.1061	–	0.4401 ± 0.0097	–
x2 = 0.2201	–	0.4568 ± 0.01	–
x2 = 0.2975	–	0.4636 ± 0.01	–
x2 = 0.3892	–	0.4726 ± 0.01	–
x2 = 0.4985	–	0.4819 ± 0.01	–
x2 = 0.5821	–	0.4898 ± 0.011	–
x2 = 0.696	–	0.5019 ± 0.011	–
x2 = 0.7973	–	0.5123 ± 0.011	–
x2 = 0.8976	–	0.5215 ± 0.011	–

COCCO + OCCO
viscosity [mPa·s], 101 kPa
Settings	x2 = 0.1359	x2 = 0.2614	x2 = 0.3776	x2 = 0.4859	x2 = 0.5861	x2 = 0.6799	x2 = 0.7676	x2 = 0.8499	x2 = 0.9272
293.15 K	2.281 ± 0.016	3.192 ± 0.022	3.871 ± 0.026	5.319 ± 0.036	6.607 ± 0.044	8.77 ± 0.057	10.8 ± 0.07	14 ± 0.09	17.35 ± 0.11
298.15 K	2.034 ± 0.014	2.799 ± 0.019	3.383 ± 0.023	4.577 ± 0.031	5.633 ± 0.038	7.281 ± 0.048	9.021 ± 0.059	11.5 ± 0.07	14.18 ± 0.09
303.15 K	1.826 ± 0.013	2.471 ± 0.017	2.981 ± 0.02	3.965 ± 0.027	4.84 ± 0.033	6.282 ± 0.042	7.583 ± 0.05	9.579 ± 0.062	11.66 ± 0.08
308.15 K	1.652 ± 0.011	2.2 ± 0.015	2.644 ± 0.018	3.468 ± 0.024	4.194 ± 0.029	5.372 ± 0.036	6.436 ± 0.043	8.035 ± 0.053	9.727 ± 0.063
313.15 K	1.494 ± 0.01	1.97 ± 0.014	2.364 ± 0.016	3.051 ± 0.021	3.663 ± 0.025	4.643 ± 0.032	5.522 ± 0.038	6.84 ± 0.046	8.193 ± 0.054
318.15 K	1.359 ± 0.01	1.775 ± 0.012	2.14 ± 0.015	2.718 ± 0.019	3.218 ± 0.022	4.04 ± 0.028	4.701 ± 0.032	5.855 ± 0.04	6.98 ± 0.047
323.15 K	1.241 ± 0.009	1.604 ± 0.011	1.938 ± 0.013	2.399 ± 0.017	2.851 ± 0.02	3.547 ± 0.024	4.102 ± 0.028	5.049 ± 0.035	5.979 ± 0.041

CCOC(=O)C(=O)OCC + c1ccccc1
303.15 K, 101 kPa
Settings	viscosity [mPa·s]
x1 = 0.0682	0.5918 ± 0.0061
x1 = 0.1415	0.6316 ± 0.0064
x1 = 0.2203	0.6727 ± 0.0068
x1 = 0.3054	0.7255 ± 0.0073
x1 = 0.3972	0.7942 ± 0.0079
x1 = 0.4972	0.8854 ± 0.0088
x1 = 0.6066	1.009 ± 0.0099
x1 = 0.7258	1.164 ± 0.011
x1 = 0.8557	1.374 ± 0.013

C1CCNCC1 + CCOC(C)=O
303.15 K, 101 kPa
Settings	viscosity [mPa·s]
x1 = 0.1	0.45 ± 0.018
x1 = 0.2	0.49 ± 0.019
x1 = 0.3	0.53 ± 0.02
x1 = 0.4	0.565 ± 0.021
x1 = 0.5	0.625 ± 0.023
x1 = 0.6	0.71 ± 0.025
x1 = 0.7	0.795 ± 0.027
x1 = 0.8	0.895 ± 0.029
x1 = 0.9	1.04 ± 0.033

CCCCNCCCC + CCO
viscosity [mPa·s], 101.33 kPa
Settings	x1 = 0.1169	x1 = 0.2094	x1 = 0.3171	x1 = 0.3921	x1 = 0.4922	x1 = 0.6159	x1 = 0.712	x1 = 0.7802	x1 = 0.8995
303.15 K	1.107 ± 0.014	1.126 ± 0.014	1.099 ± 0.014	1.065 ± 0.013	1.008 ± 0.013	0.9427 ± 0.012	0.8965 ± 0.011	0.8625 ± 0.011	0.8089 ± 0.01
313.15 K	0.9037 ± 0.012	0.9066 ± 0.012	0.8803 ± 0.011	0.8493 ± 0.011	0.8109 ± 0.011	0.766 ± 0.01	0.7426 ± 0.0098	0.7261 ± 0.0096	0.6965 ± 0.0093
